# Measured values reported in patent US11918000B2, “Methods for inducing resistance to virus in a plant, priming a plant to resist viruses, decreasing virus accumulation, or increasing PR1 expression in a plant” (Academia Sinica, priority 2019, dated 2024).
# Key:
# PR-1 = assay: Relative expression of PR-1 by qRT-PCR; assay type: in vivo, Nicotiana benthamiana; conditions: N. benthamiana, no TMV, 24 hpt
# Excerpt: Total RNA was isolated by use of Trizol (Invitrogen, Bethesda, Md.) according to the manufacturer's instruction. Residual DNA was removed by using the TURBO DNA-free kit (Ambion, Austin Tex., USA). cDNA was synthesized by using the PrimeScript RT-PCR Kit (Takara Bio, Shiga, Japan). Quantitative RT-PCR (qRT-PCR) involved the SYBR protocol (Life Technologies) and the ABI 7100 real-time PCR system (Applied Biosystems, Carlsbad, Calif.). For quantitative analysis, actin was used as an input control. Relative fold change in mRNA expression was determined by calculating 2^−ΔΔCt. The sequences of primers used are in Table S1.
# We collected both the local and upper un-treated (systemic) leaves at 24 h post-treatment (hpt) to analyze the expression of the PR-1 gene (a SAR marker gene) (Zheng et al., 2015). PR-1 gene expression was detected in SA- and VB- but not F8-culture filtrate-treated local leaves (FIG. 4C). […] In addition, we collected leaves from plants with whole plants pretreated with H2O, SA, VB or F8-culture filtrate. Consistently, PR-1 gene induction was detected in leaves of whole plants pretreated with SA and VB but not whole plants pretreated with F8-culture filtrate at 24 hpt (FIG. 4E).
# To analyze how F8-polysaccharide induces plant viral resistance, we measured the expression of SA-, JA- and ET-responsive immune marker genes in H2O- and F8-polysaccharide-treated plants (Cortes-Barco et al., 2010; Milling et al., 2011; Zhu et al., 2014). We first confirmed the induction of marker genes induced by SA (PR-1 and PR-2), JA (PDF-1.2 and PR-4), and ET (Osm and EREBP) in N. benthamiana (FIG. 14A). Plants were pretreated with H2O and F8-polysacccharide for total of three times with a 24-h interval between each spray as described previously, then leaves were collected from one set of individual plants at 0, 12, 24, 36, 48, 72, and 96 hpt. […] We detected the accumulation of TMV and the expression of SA-, JA- and ET-responsive immune marker genes (FIG. 9A-D, FIGS. S5C and D). […]
# [1] = test system: Tobacco mosaic virus (TMV); assay: Infection rate of TMV on Nicotiana benthamiana, inoculum from lyophilized infected leaves, RT-PCR detection; assay type: in vivo; conditions: N. benthamiana
# Procedure: (§1) Plants were grown in a growth chamber with 10,000 lux fluorescent light and a 16-h light/8-h dark cycle. N. glutinosa (6-7 weeks old, 8-10 leaf stage), N. benthamiana (3-4 weeks old, 5-6 leaf stage) and Brassica juncea (14 days old, 2-3 true-leaf stage) were used for treatment and/or inoculation. For virus inoculation, plants were dusted with 600-grit silicon carbide powder (Sigma-Aldrich, St. Louis, Mo., USA) and mechanically inoculated. Virus inoculum was prepared with 100 ml of 0.1 M potassium phosphate (KP) buffer (61.5% of 0.1 M K2HPO4 and 38.5% 0.1 M KH2PO4, pH 7.0) mixed with 0.1 g of lyophilized leaves of plants infected with Tobacco mosaic virus (TMV) (FIGS. 1, 4A-E, 8 and 9; FIG. 10, 11, 12, 14 and 15; Table 1), or TMV tagged with green fluorescence protein (TMV-GFP) (FIG. 5) (Rabindran, S., and Dawson, W.O. 2001. Assessment of recombinants that arise from the use of a TMV-based transient expression vector. Virology 284:182-189). Different concentrations of TMV purified particle inoculum was diluted with 0.1 M potassium phosphate (KP) buffer (61.5% of 0.1 M K2HPO4 and 38.5% 0.1 M KH2PO4, pH 7.0) (FIGS. 2, 3, and 4F; Table 2). Turnip mosaic virus (TuMV) inoculum was prepared with 0.1 g of fresh leaves from plants infected with TuMV ground with 10 ml of 0.1 M sodium phosphate buffer (0.1 M NaH2PO4, 0.1 M Na2HPO4 and 0.5% Na2SO3, pH 7.4). The severity of TMV or TuMV symptom of infected plants were scored based on external phenotype (FIG. 15). Transmission electron microscope (Philips Electronic Instruments, Mahwah, N.J.) was used to examine TMV particles of different inoculums.
# (§2) Whole plants were sprayed with 0.4 ml H2O, VB, culture filtrate derived from microorganism or 5 mM salicylic acid (SA, Sigma-Aldrich) for total of three times with a 24-h interval between each spray. Twenty-four hours after the final treatment, plants were rubbed with the virus inoculum.
# Besides using N. glutinosa for our initial screening, we also used N. benthamiana, a host that is highly susceptible to TMV, for resistance assay. N. benthamiana was pretreated with H2O, SA, VB, F2- or F8-culture filtrate as for pretreatment of N. glutinosa. All treated plants were inoculated with TMV inoculum made from lyophilized leaves of TMV infected N. benthamiana. […] With RT-PCR to detect TMV on all treated plants, the infection rate was much reduced with F8-culture filtrate than H2O, SA, VB or F2-culture filtrate pretreatment (Table 1). In our repeat experiments, the infection rate of TMV-inoculated plants with F8-culture filtrate pretreatment even decreased to 0% (Table 1). […] We prepared at least 7 different batches of F8-culture filtrate, and the ability to induce resistance against TMV was consistent between different batches (Table 1).
# [2] = test system: Tobacco mosaic virus (TMV); assay: Symptoms / disease index induced by TMV in Nicotiana benthamiana; assay type: in vivo; conditions: N. benthamiana; systemic protection test; 7 dpi
# Procedure: FIG. 15A and FIG. 15B show disease index of N. benthamiana inoculated with TMV and Brassica juncea inoculated with TuMV. (FIG. 15A) N. benthamiana were inoculated with TMV. The disease index was classified into 4 levels according to the degree of yellowing, stunting and wilting at 7 dpi. (FIG. 15B) Brassica juncea were inoculated with TuMV. The disease index was classified into 3 levels according to the degree of leaf mosaic and stunting at 13 dpi.
# Plants were grown in a growth chamber with 10,000 lux fluorescent light and a 16-h light/8-h dark cycle. N. glutinosa (6-7 weeks old, 8-10 leaf stage), N. benthamiana (3-4 weeks old, 5-6 leaf stage) and Brassica juncea (14 days old, 2-3 true-leaf stage) were used for treatment and/or inoculation. […] Virus inoculum was prepared with 100 ml of 0.1 M potassium phosphate (KP) buffer (61.5% of 0.1 M K2HPO4 and 38.5% 0.1 M KH2PO4, pH 7.0) mixed with 0.1 g of lyophilized leaves of plants infected with Tobacco mosaic virus (TMV) (FIGS. 1, 4A-E, 8 and 9; FIG. 10, 11, 12, 14 and 15; Table 1), or TMV tagged with green fluorescence protein (TMV-GFP) (FIG. 5) (Rabindran, S., and Dawson, W.O. 2001. Assessment of recombinants that arise from the use of a TMV-based transient expression vector. Virology 284:182-189). […] The severity of TMV or TuMV symptom of infected plants were scored based on external phenotype (FIG. 15). […]
# [3] = test system: Tobacco mosaic virus (TMV) particle; assay: Infection rate of purified TMV particle on Nicotiana benthamiana; assay type: in vivo; conditions: Table 2, N. benthamiana, 7 dpi, RT-PCR, SA 5 mM
# Procedure: as §1
# Leaves of TMV-infected N. benthamiana were harvested approximately 5 days after inoculation. The initial purification of TMV virus particles followed the protocol as described by Gooding and Hebert (1967) with modifications. Briefly, polyethylene glycol with molecular weight 8000 (PEG 8000) (Sigma-Aldrich) was used instead of PEG 6000. In addition, the semi-purified preparation was submitted to linear density sucrose gradient (0-18%), and ultracentrifuged at 228,000×g for 1.5 h. The light scattering region was collected and diluted with 100 ml of suspension buffer (35 mM Na2HPO4, 15 mM NaH2PO4 and 0.05% 2-mercaptoethanol, pH7.2). NaCl (0.4 g) and PEG 8000 (4 g) were added and stirred for at least 1 h on ice, then centrifuged at 9000×g for 15 min at 4° C. The pellets were re-suspended in 1 ml of suspension buffer. The concentration of the purified TMV suspension was determined (A260 nm=[…] for 1 mg/mL of TMV) with a Nanodrop (ND-1000, Thermo Fisher Scientific, MA, USA).
# as §2
# In addition to using inoculum made from lyophilized leaves of TMV infected N. benthamiana, we also used different concentrations (1 μg/ml, 10 μg/ml and 50 μg/ml) of purified TMV particles as inoculum to inoculate N. glutinosa and N. benthamiana pretreated with H2O, SA, VB, or F8-culture filtrate (FIG. 2, FIG. 3). […] The infection rate of TMV on N. benthamiana was also detected by use of qRT-PCR (Table 2).
# [4] = test system: TMV tagged with green fluorescence protein (TMV-GFP); assay: TMV-GFP infection of Nicotiana benthamiana (fluorescent infection foci); assay type: in vivo; conditions: N. benthamiana
# Procedure: as §1, §2
# Photographs of TMV-GFP fluorescent infection foci in N. benthamiana leaves were taken under UV light at 5 and 7 days post-inoculation (dpi), and the level of fluorescence as well as the areas of fluorescent infection sites in each leaf were measured by using ImageJ v1.47. All imaging was conducted under identical illumination and exposure conditions to allow for comparisons. Mean values of areas of all infection foci per treatment were calculated.
# To analyze which virus infection steps are affected in F8-culture filtrate-treated plants, we used TMV tagged with green fluorescence protein (GFP) to inoculate N. benthamiana and monitor the infection of TMV. […] To compare TMV-GFP accumulation in each foci, we used a puncher to collect GFP foci under UV light and used qRT-PCR to quantify the TMV-GFP expression. […]
# [5] = Table 1, lyophilized leaf inoculum, 7 dpi, RT-PCR, SA 5 mM
# [6] = Table S3, fractions derived from F8-culture filtrate, 7 dpi, RT-PCR
smiles,measurement,setting,value
"O=C(O)c1ccccc1O [SA, salicylic acid]",PR-1 gene expression in treated local leaves,PR-1; local leaves pretreated,detected
same,PR-1 gene expression on systemic (upper untreated) leaves,PR-1; local leaves pretreated,increased PR-1 gene expression
same,PR-1 gene induction in leaves of whole plants pretreated,PR-1; whole plant pretreated,detected
same,infection rate of TMV-inoculated plants,[1]; pretreatment before TMV inoculation,100%
same,"infection rate of TMV: number of plants detected with TMV to total TMV inoculated plants, Exp. 2",[1]; [5],5/5
same,"infection rate of TMV: number of plants detected with TMV to total TMV inoculated plants, Exp. 3",[1]; [5],4/5
same,"infection rate of TMV: number of plants detected with TMV to total TMV inoculated plants, Exp. 4",[1]; [5],5/5
same,"infection rate of TMV: number of plants detected with TMV to total TMV inoculated plants, Exp. 5",[1]; [5],5/5
same,"infection rate of TMV: number of plants detected with TMV to total TMV inoculated plants, Exp. 6",[1]; [5],5/5
same,"infection rate of TMV: number of plants detected with TMV to total TMV inoculated plants, Exp. 7",[1]; [5],5/5
same,"infection rate of TMV: number of plants detected with TMV to total TMV inoculated plants, Exp. 8",[1]; [5],5/5
same,"infection rate of TMV: number of plants detected with TMV to total TMV inoculated plants, Exp. 1","[1]; Table 1, three sprays at 24-h intervals, inoculum from lyophilized TMV-inoculated leaves, 7 dpi, RT-PCR, SA 5 mM",5/5
same,"infection rate of TMV: number of plants detected with TMV to total TMV inoculated plants, Total","[1]; Table 1, sum of Exp. 1-8, 7 dpi, RT-PCR",39/40
same,"infection rate of TMV: number of plants detected with TMV to total TMV inoculated plants, Exp. 1",[1]; [6],5/5
same,"infection rate of TMV: number of plants detected with TMV to total TMV inoculated plants, Exp. 2",[1]; [6],5/5
same,"infection rate of TMV: number of plants detected with TMV to total TMV inoculated plants, Exp. 3",[1]; [6],5/5
same,"infection rate of TMV: number of plants detected with TMV to total TMV inoculated plants, Total","[1]; Table S3, sum of Exp. 1-3, 7 dpi, RT-PCR",15/15
same,viral symptoms with pretreatment of only local (lower) leaves and TMV inoculation of upper untreated leaves,[2],severe viral symptoms
same,"infection rate of TMV particle: number of plants detected with TMV to total inoculated plants, Exp. 1, 1 μg/ml",[3]; TMV particle 1 μg/ml,6/6
same,"infection rate of TMV particle: number of plants detected with TMV to total inoculated plants, Exp. 2, 1 μg/ml",[3]; TMV particle 1 μg/ml,6/6
same,"infection rate of TMV particle: number of plants detected with TMV to total inoculated plants, Exp. 3, 1 μg/ml",[3]; TMV particle 1 μg/ml,15/15
same,"infection rate of TMV particle: number of plants detected with TMV to total inoculated plants, Exp. 1, 10 μg/ml",[3]; TMV particle 10 μg/ml,6/6
same,"infection rate of TMV particle: number of plants detected with TMV to total inoculated plants, Exp. 1, 50 μg/ml",[3]; TMV particle 50 μg/ml,6/6
same,number of initial TMV-GFP infection foci,[4]; 5 dpi,reduced
same,mean TMV accumulation per foci,[4]; qRT-PCR of punched GFP foci,similar
same,"infection rate of TMV-GFP: number of plants exhibiting green fluorescence under UV illumination to total TMV-GFP inoculated plants, Exp. 1","[4]; Table S2, 7 dpi, SA 5 mM",5/5
same,"infection rate of TMV-GFP: number of plants exhibiting green fluorescence under UV illumination to total TMV-GFP inoculated plants, Exp. 2","[4]; Table S2, 7 dpi, SA 5 mM",4/6
